Data as given in patent US9713614B2, “Combination of HMG-CoA reductase inhibitors with phosphodiesterase 4 inhibitors for the treatment of inflammatory pulmonary diseases” (TAKEDA GMBH, priority 2006, dated 2017).

Test system: LPS-induced systemic TNFα release
Test: Inhibition of LPS-induced systemic TNFα release in rats
Format: in vivo, rat
Details: for ED50: Rattus norvegicus, male Sprague Dawley rats, by gavage 1 h before i.v. LPS 0.1 mg/kg, plasma TNFα by ELISA 90 min after LPS, from dose-response curves
Protocol: Pharmacology: Synergistic Inhibition of LPS-Induced Systemic TNFα Release in Rats by a Combination of ATORVASTATIN Hemi-Calcium Sesqui-Hydrate and 2-{4-[(4aS,8aR)-4-(3,4-dimethoxyphenyl)-1-oxo-4a,5,8,8a-tetrahydro-1H-phthalazin-2-yl]-piperidin-1-yl}-acetamide (COMPOUND A) Animals:
male Sprague Dawley rats 200-280 g
ATORVASTATIN hemi-calcium sesqui-hydrate (Alexis Pharmaceuticals, San Diego, Calif., USA) and COMPOUND A (ALTANA Pharma, Konstanz, Germany).
Drugs were administered by gavage as a methocel/polyethylenglycol 400 suspension 1 h before intravenous administration of LPS (0.1 mg/kg). Euthanasia was induced 90 minutes later by injecting pentobarbital (48 mg/kg) and heparin (1,000 U/kg). Heparinized blood was obtained by heart puncture. Blood was centrifuged (21,000×g, 4° C., 15 min), and plasma samples were kept frozen at −80° C. until determination of TNFα levels by a commercially available ELISA kit (Quantakine®M, Rat TNFα immunoassay, R&D, MN, USA).
All data are given as mean±SEM. Significances were calculated on the primary TNFα concentrations in comparison with the LPS-challenged control group using ANOVA with subsequent Dunnett's Test provided by GraphPadPrism software package. Differences with p<0.05 were considered significant. Dose-response curves were calculated by non-linear regression analysis within fixed limits of 0 to 100% inhibition. 50% inhibitory dose (ED50) values were derived from dose-response curves.

SMILES | increase of LPS-induced TNFα versus placebo (COMPOUND A alone 0.013 mg/kg by gavage, rats, no significant effect) [%] | ED50 [mg/kg] | decrease of LPS-induced TNFα versus placebo (ATORVASTATIN hemi-calcium sesqui-hydrate alone 0.5 mg/kg by gavage, rats, no significant effect) [%]
COc1ccc(C2=NN(C3CCN(CC(N)=O)CC3)C(=O)[C@@H]3CC=CC[C@H]23)cc1OC [COMPOUND A, 2-{4-[(4aS,8aR)-4-(3,4-dimethoxyphenyl)-1-oxo-4a,5,8,8a-tetrahydro-1H-phthalazin-2-yl]-piperidin-1-yl}-acetamide] | 1 | 0.14 | 
CC(C)c1c(C(=O)Nc2ccccc2)c(-c2ccccc2)c(-c2ccc(F)cc2)n1CC[C@@H](O)C[C@H](O)CC(=O)O [ATORVASTATIN hemi-calcium sesqui-hydrate, (3S,5R)-7-[3-(anilinocarbonyl)-5-(4-fluorophenyl)-2-isopropyl-4-phenyl-1H-pyrrol-1-yl]-3,5-dihydroxyheptanoic acid] |  | 23 | 11
